Data reported in patent US12319676B2, “Substituted amide compounds useful as farnesoid X receptor modulators” (BRISTOL-MYERS SQUIBB COMPANY, priority 2019, dated 2025).

Target: T1, human FXR (Homo sapiens, UniProt Q96RI1)
T1 construct: expressed in transfected cells; host or cells: HEK293 cells stably carrying a 5xGal4 response element-luciferase reporter, transiently transfected with pcDNA3.1-Gal4-FXR
T1 sequence (Q96RI1 262-486 limits assumed): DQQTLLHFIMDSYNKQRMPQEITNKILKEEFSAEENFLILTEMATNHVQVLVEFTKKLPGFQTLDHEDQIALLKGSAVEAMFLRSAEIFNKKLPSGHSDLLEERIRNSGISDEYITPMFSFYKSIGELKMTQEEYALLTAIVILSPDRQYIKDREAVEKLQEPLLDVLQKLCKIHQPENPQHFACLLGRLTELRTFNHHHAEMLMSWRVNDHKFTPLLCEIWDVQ
Assay: transient human FXR/Gal4-luciferase reporter assay
Assay type: cell-based
Conditions: Gal4-hFXR fusion construct, luciferase reporter in HEK293 cells; overnight incubation; response as percentage of 8 μM GW-4064 control
How it was run: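 HEK293 cells stably carrying a 5×Gal4-response-element firefly luciferase reporter were transiently transfected with a Gal4 DBD-human FXR LBD fusion, then treated overnight with compounds at 37 °C. Steady-Glo luminescence, minus DMSO background, was expressed as percent of the response to 8 μM GW-4064.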

Compound	EC50 [µM]
CC(C)(C)c1noc(C23CCC(CN(C(=O)C45CC(F)(C4)C5)c4cccc(Br)c4)(CC2)C3)n1 [Example 132, N-(3-bromophenyl)-N-((4-(3-(tert-butyl)-1,2,4-oxadiazol-5-yl)bicyclo[2.2.1]heptan-1-yl)methyl)-3-fluorobicyclo[1.1.1]pentane-1-carboxamide]	0.498
CC(F)(F)c1nc(C23CCC(CN(C(=O)C45CC(F)(C4)C5)c4cc(F)cc(C#N)c4)(CC2)CC3)no1 [Example 135, N-(3-cyano-5-fluorophenyl)-N-((4-(5-(1,1-difluoroethyl)-1,2,4-oxadiazol-3-yl)bicyclo[2.2.2]octan-1-yl)methyl)-3-fluorobicyclo[1.1.1]pentane-1-carboxamide]	0.018
CC(F)(F)c1nc(C23CCC(CN(c4cc(F)cc(C#N)c4)C(=O)[C@H]4C[C@](O)(C(F)(F)F)C4)(CC2)CC3)no1 [Example 136, (1S,3S)-N-(3-cyano-5-fluorophenyl)-N-((4-(5-(1,1-difluoroethyl)-1,2,4-oxadiazol-3-yl)bicyclo[2.2.2]octan-1-yl)methyl)-3-hydroxy-3-(trifluoromethyl)cyclobutane-1]	0.256
CC(F)(F)c1nc(C23CCC(CN(C(=O)C4CC(F)(F)C4)c4cc(F)cc(C#N)c4)(CC2)CC3)no1 [Example 137, N-(3-cyano-5-fluorophenyl)-N-((4-(5-(1,1-difluoroethyl)-1,2,4-oxadiazol-3-yl)bicyclo[2.2.2]octan-1-yl)methyl)-3,3-difluorocyclobutane-1-carboxamide]	0.103
CC(F)(F)c1nc(C23CCC(CN(C(=O)C4CCS(=O)(=O)CC4)c4cc(F)cc(C#N)c4)(CC2)CC3)no1 [Example 138, N-(3-cyano-5-fluorophenyl)-N-((4-(5-(1,1-difluoroethyl)-1,2,4-oxadiazol-3-yl)bicyclo[2.2.2]octan-1-yl)methyl)tetrahydro-2H-thiopyran-4-carboxamide 1,1-dioxide]	4

The remaining lines, values ahead:

EC50 [µM]	Compound
0.091	CCOc1cccc(N(CC23CCC(c4noc(C(C)(F)F)n4)(CC2)CC3)C(=O)C23CC(F)(C2)C3)c1 [Example 130, N-((4-(5-(1,1-difluoroethyl)-1,2,4-oxadiazol-3-yl)bicyclo[2.2.2]octan-1-yl)methyl)-N-(3-ethoxyphenyl)-3-fluorobicyclo[1.1.1]pentane-1-carboxamide]
0.228	CC(F)(F)c1nc(C23CCC(CN(C(=O)NC[C@H](F)C(C)(C)O)c4cccc(Br)c4)(CC2)CC3)no1 [Example 131, (S)-1-(3-bromophenyl)-1-((4-(5-(1,1-difluoroethyl)-1,2,4-oxadiazol-3-yl)bicyclo[2.2.2]octan-1-yl)methyl)-3-(2-fluoro-3-hydroxy-3-methylbutyl)urea]
4	CC(C)(C)c1noc(C23CCC(CN(c4cccc(Br)c4)C(=O)[C@H]4C[C@](O)(C(F)(F)F)C4)(CC2)C3)n1 [Example 133, (1s, 3s)-N-(3-bromophenyl)-N-((4-(3-(tert-butyl)-1,2,4-oxadiazol-5-yl)bicyclo[2.2.1]heptan-1-yl)methyl)-3-hydroxy-3-(trifluoromethyl) cyclobutane-1-carboxamide]
0.434	CC(C)(F)c1nc(C23CCC(CN(C(=O)C45CC(C(C)(C)O)(C4)C5)c4cccc(Br)c4)(CC2)CC3)no1 [Example 134, N-(3-bromophenyl)-N-((4-(5-(2-fluoropropan-2-yl)-1,2,4-oxadiazol-3-yl)bicyclo[2.2.2]octan-1-yl)methyl)-3-(2-hydroxypropan-2-yl)bicyclo[1.1.1]pentane-1-carboxamide]
1.45	NC(=O)c1nc(C23CCC(CN(c4cccc(Br)c4)C(=O)[C@H]4C[C@](O)(C(F)(F)F)C4)(CC2)CC3)no1 [Example 139, 3-(4-(((1S,3S)—N-(3-bromophenyl)-3-hydroxy-3-(trifluoromethyl)cyclobutane-1-carboxamido)methyl)bicyclo[2.2.2]octan-1-yl)-1,2,4-oxadiazole-5-carboxamide]
0.721	NC(=O)c1nc(C23CCC(CN(C(=O)C45CC(F)(C4)C5)c4cccc(Br)c4)(CC2)CC3)no1 [Example 140, 3-(4-((N-(3-bromophenyl)-3-fluorobicyclo[1.1.1]pentane-1-carboxamido)methyl)bicyclo[2.2.2]octan-1-yl)-1,2,4-oxadiazole-5-carboxamide]
